# Square brackets hold non-standard residues; d marks the D form. Peptide text beside a SMILES is read from it. * marks the point of attachment. X1 = CC(C)(O/N=C(\C(=O)N[C@@H]1C(=O)N2C(C(=O)[O-])=C(C[n+]3ccccc3)CS[C@H]12)c1csc(N)n1)C(=O)NCCCCCCN1C(=O)CC(*)C1=O; X2 = C[C@H]1[C@H](NC(=O)/C(=N\OC(C)(C)C(=O)NCCCCCCN2C(=O)CC(*)C2=O)c2csc(N)n2)C(=O)N1S(=O)(=O)O
# Test system: B. subtilis DSM 10
# Experiment: microbe, parasite or virus in culture
# Format: cell-based
# Conditions: B. subtilis DSM 10; median (n = 3)
# Description: The minimum inhibitory concentration (MIC) of the β‐lactam–peptide conjugates was determined by broth microdilution as previously described.^[ [17] ^] Briefly, in cation‐adjusted MHB II medium, a twofold serial dilution of the compounds was prepared in 96‐well round‐bottom polystyrene or polypropylene microtiter plates with each well containing 50 µL. The plates were inoculated with 50 µL bacterial suspension and the final inoculum, in a total volume of 100 µL, contained 5 × 10^5 CFU mL^−1. The microplates were incubated for 20 h at 37 ± 1 °C. The lowest concentration preventing visible bacterial growth was considered the MIC value. For susceptibility testing of combinations of β‐lactamase‐inhibitors with either a β‐lactam antibiotic or a β‐lactam–peptide conjugate, fixed concentrations of the inhibitors according to the EUCAST (European Committee on Antimicrobial Susceptibility Testing) guidelines (clavulanic acid = 2 mg L^−1, avibactam = 4 mg L^−1) were used.
row,SMILES,MIC
1,C[C@H]1[C@H](NC(=O)/C(=N\OC(C)(C)C(=O)NCCCCCCN2C(=O)CC(SC[C@H](NC(=O)[C@H](CCCNC(=N)N)NC(=O)[C@H](CCCNC(=N)N)NC(=O)[C@H](CCCNC(=N)N)NC(=O)[C@H](CCCNC(=N)N)NC(=O)[C@H](CCCNC(=N)N)NC(=O)[C@H](CCCNC(=N)N)NC(=O)[C@H](N)Cc3ccc(O)cc3)C(N)=O)C2=O)c2csc(N)n2)C(=O)N1S(=O)(=O)O (some centres unmarked) [AZT-yR6] (H-[dY]RRRRRRC(X2)-NH2; N-terminus assumed),1 µg/mL

# Same assay, conditions: DSM 10, 20 h
row,SMILES,MIC
1,CC(C)(O/N=C(\C(=O)N[C@@H]1C(=O)N2C(C(=O)[O-])=C(C[n+]3ccccc3)CS[C@H]12)c1csc(N)n1)C(=O)NCCCCCCN1C(=O)CC(SC[C@H](NC(=O)[C@H](CCCNC(=N)N)NC(=O)[C@H](CCCNC(=N)N)NC(=O)[C@@H](N)CCCNC(=N)N)C(N)=O)C1=O (some centres unmarked) [CTZ-R3],0.06 µg/mL
2,C[C@H]1[C@H](NC(=O)/C(=N\OC(C)(C)C(=O)NCCCCCCN2C(=O)CC(SC[C@H](NC(=O)[C@H](CCCNC(=N)N)NC(=O)[C@H](CCCNC(=N)N)NC(=O)[C@H](CCCNC(=N)N)NC(=O)[C@H](CCCNC(=N)N)NC(=O)[C@H](CCCNC(=N)N)NC(=O)[C@H](CCCNC(=N)N)NC(=O)[C@H](CCCNC(=N)N)NC(=O)[C@H](CCCNC(=N)N)NC(=O)[C@H](CCCNC(=N)N)NC(=O)[C@H](CCCNC(=N)N)NC(=O)[C@H](CCCNC(=N)N)NC(=O)[C@@H](N)CCCNC(=N)N)C(N)=O)C2=O)c2csc(N)n2)C(=O)N1S(=O)(=O)O (some centres unmarked) [AZT-R12],1 µg/mL
3,C[C@H]1[C@H](NC(=O)/C(=N\OC(C)(C)C(=O)NCCCCCCN2C(=O)CC(SC[C@H](NC(=O)[C@H](CCCCN)NC(=O)[C@H](CCCCN)NC(=O)[C@H](CCCCN)NC(=O)[C@H](CCCCN)NC(=O)[C@H](CCCCN)NC(=O)[C@H](CCCCN)NC(=O)[C@H](CCCCN)NC(=O)[C@H](CCCCN)NC(=O)[C@H](CCCCN)NC(=O)[C@H](CCCCN)NC(=O)[C@H](CCCCN)NC(=O)[C@@H](N)CCCCN)C(N)=O)C2=O)c2csc(N)n2)C(=O)N1S(=O)(=O)O (some centres unmarked) [AZT-K12] (H-KKKKKKKKKKKKC(X2)-NH2; N-terminus assumed),0.06 µg/mL
4,CC(C)(O/N=C(\C(=O)N[C@@H]1C(=O)N2C(C(=O)[O-])=C(C[n+]3ccccc3)CS[C@H]12)c1csc(N)n1)C(=O)NCCCCCCN1C(=O)CC(SC[C@H](NC(=O)[C@H](CCCCN)NC(=O)[C@H](CCCCN)NC(=O)[C@H](CCCCN)NC(=O)[C@H](CCCNC(=N)N)NC(=O)[C@H](CCCNC(=N)N)NC(=O)[C@@H](N)CCCNC(=N)N)C(N)=O)C1=O (some centres unmarked) [CTZ-R3K3] (H-RRRKKKC(X1)-NH2; N-terminus assumed),0.008 µg/mL
5,C[C@H]1[C@H](NC(=O)/C(=N\OC(C)(C)C(=O)NCCCCCCN2C(=O)CC(SC[C@H](NC(=O)[C@H](CCCNC(=N)N)NC(=O)[C@H](CCCNC(=N)N)NC(=O)[C@@H](N)CCCNC(=N)N)C(N)=O)C2=O)c2csc(N)n2)C(=O)N1S(=O)(=O)O (some centres unmarked) [AZT-R3],1 µg/mL
6,C[C@H]1[C@H](NC(=O)/C(=N\OC(C)(C)C(=O)NCCCCCCN2C(=O)CC(SC[C@H](NC(=O)[C@H](CCCNC(=N)N)NC(=O)[C@H](CCCNC(=N)N)NC(=O)[C@H](CCCNC(=N)N)NC(=O)[C@H](CCCNC(=N)N)NC(=O)[C@H](CCCNC(=N)N)NC(=O)[C@H](CCCNC(=N)N)NC(=O)[C@H](CCCNC(=N)N)NC(=O)[C@H](CCCNC(=N)N)NC(=O)[C@@H](N)CCCNC(=N)N)C(N)=O)C2=O)c2csc(N)n2)C(=O)N1S(=O)(=O)O (some centres unmarked) [AZT-R9],0.5 µg/mL
7,C[C@H]1[C@H](NC(=O)/C(=N\OC(C)(C)C(=O)NCCCCCCN2C(=O)CC(SC[C@H](NC(=O)[C@H](CCCNC(=N)N)NC(=O)[C@H](CCCCN)NC(=O)[C@H](CCCNC(=N)N)NC(=O)[C@H](CCCCN)NC(=O)[C@H](CCCNC(=N)N)NC(=O)[C@@H](N)CCCCN)C(N)=O)C2=O)c2csc(N)n2)C(=O)N1S(=O)(=O)O (some centres unmarked) [AZT-(KR)3] (H-KRKRKRC(X2)-NH2; N-terminus assumed),0.06 µg/mL
8,CC(C)(O/N=C(\C(=O)N[C@@H]1C(=O)N2C(C(=O)[O-])=C(C[n+]3ccccc3)CS[C@H]12)c1csc(N)n1)C(=O)NCCCCCCN1C(=O)CC(SC[C@H](NC(=O)[C@H](CCC(=O)O)NC(=O)[C@H](CCC(=O)O)NC(=O)[C@H](CCC(=O)O)NC(=O)[C@H](CCC(=O)O)NC(=O)[C@H](CCC(=O)O)NC(=O)[C@@H](N)CCC(=O)O)C(N)=O)C1=O (some centres unmarked) [CTZ-E6],> 64 µg/mL
9,CC1(C)S[C@@H]2[C@H](NC(=O)[C@H](NC(=O)C3CCC(CN4C(=O)CC(SC[C@H](NC(=O)[C@H](CCCNC(=N)N)NC(=O)[C@H](CCCNC(=N)N)NC(=O)[C@H](CCCNC(=N)N)NC(=O)[C@H](CCCNC(=N)N)NC(=O)[C@H](CCCNC(=N)N)NC(=O)[C@@H](N)CCCNC(=N)N)C(N)=O)C4=O)CC3)c3ccc(O)cc3)C(=O)N2[C@H]1C(=O)O (some centres unmarked) [AMO-R6],0.06 µg/mL
10,C[C@H]1[C@H](NC(=O)/C(=N\OC(C)(C)C(=O)NCCCCCCN2C(=O)CC(SC[C@H](NC(=O)[C@H](CCCCN)NC(=O)[C@H](CCCCN)NC(=O)[C@H](CCCCN)NC(=O)[C@H](CCCNC(=N)N)NC(=O)[C@H](CCCNC(=N)N)NC(=O)[C@@H](N)CCCNC(=N)N)C(N)=O)C2=O)c2csc(N)n2)C(=O)N1S(=O)(=O)O (some centres unmarked) [AZT-R3K3] (H-RRRKKKC(X2)-NH2; N-terminus assumed),0.06 µg/mL
11,C[C@H]1[C@H](NC(=O)/C(=N\OC(C)(C)C(=O)NCCCCCCN2C(=O)CC(SC[C@H](NC(=O)[C@H](CCC(=O)O)NC(=O)[C@H](CCC(=O)O)NC(=O)[C@H](CCC(=O)O)NC(=O)[C@H](CCC(=O)O)NC(=O)[C@H](CCC(=O)O)NC(=O)[C@@H](N)CCC(=O)O)C(N)=O)C2=O)c2csc(N)n2)C(=O)N1S(=O)(=O)O (some centres unmarked) [AZT-E6],> 64 µg/mL
12,CC(C)(O/N=C(\C(=O)N[C@@H]1C(=O)N2C(C(=O)[O-])=C(C[n+]3ccccc3)CS[C@H]12)c1csc(N)n1)C(=O)NCCCCCCN1C(=O)CC(SC[C@H](NC(=O)[C@@H](N)CCCCN)C(N)=O)C1=O (some centres unmarked) [CTZ-K1],1 µg/mL
13,C[C@H]1[C@H](NC(=O)/C(=N\OC(C)(C)C(=O)NCCCCCCN2C(=O)CC(SC[C@H](NC(=O)[C@H](CCCCN)NC(=O)[C@H](CCCCN)NC(=O)[C@H](CCCCN)NC(=O)[C@H](CCCCN)NC(=O)[C@H](CCCCN)NC(=O)[C@@H](N)CCCCN)C(N)=O)C2=O)c2csc(N)n2)C(=O)N1S(=O)(=O)O (some centres unmarked) [AZT-K6] (H-KKKKKKC(X2)-NH2; N-terminus assumed),0.25 µg/mL
14,C[C@H]1[C@H](NC(=O)/C(=N\OC(C)(C)C(=O)NCCCCCCN2C(=O)CC(SC[C@H](NC(=O)[C@H](CCCCN)NC(=O)[C@H](CCCCN)NC(=O)[C@H](CCCCN)NC(=O)[C@H](CCCCN)NC(=O)[C@H](CCCCN)NC(=O)[C@H](CCCCN)NC(=O)[C@H](CCCCN)NC(=O)[C@H](CCCCN)NC(=O)[C@@H](N)CCCCN)C(N)=O)C2=O)c2csc(N)n2)C(=O)N1S(=O)(=O)O (some centres unmarked) [AZT-K9] (H-KKKKKKKKKC(X2)-NH2; N-terminus assumed),0.1 µg/mL
15,C[C@H]1[C@H](NC(=O)/C(=N\OC(C)(C)C(=O)NCCCCCCN2C(=O)CC(SC[C@H](NC(=O)[C@@H](N)CCCCN)C(N)=O)C2=O)c2csc(N)n2)C(=O)N1S(=O)(=O)O (some centres unmarked) [AZT-K1],16 µg/mL
16,CC(C)(O/N=C(\C(=O)N[C@@H]1C(=O)N2C(C(=O)[O-])=C(C[n+]3ccccc3)CS[C@H]12)c1csc(N)n1)C(=O)NCCCCCCN1C(=O)CC(SC[C@H](NC(=O)CNC(=O)CNC(=O)CNC(=O)CNC(=O)CNC(=O)CN)C(N)=O)C1=O (some centres unmarked) [CTZ-G6] (H-GGGGGGC(X1)-NH2; N-terminus assumed),8 µg/mL

# Reference: PMC11672299, “Conjugation of Polycationic Peptides Extends the Efficacy Spectrum of β‐Lactam Antibiotics” (Advanced Science, 2024)
